Assay results from patent publication US9216991B2 (Ares Trading S.A., priority 2012, dated 2015).
Counter-ions that a name gives are not always drawn.

Legend:
IRAK4 = target: T1, IRAK4 (Homo sapiens, UniProt Q9NWZ3); assay: IRAK4 Enzymatic Assay; type: biochemical; conditions: His-TEV-IRAK4 20 ng/well, ATP 2 μM, STK1-biotin peptide 300 nM, 3 hours at 30° C., FlashPlate radioactivity
T1 construct: His (N); TEV cleavage site (N)
T1 sequence (Q9NWZ3 1-460): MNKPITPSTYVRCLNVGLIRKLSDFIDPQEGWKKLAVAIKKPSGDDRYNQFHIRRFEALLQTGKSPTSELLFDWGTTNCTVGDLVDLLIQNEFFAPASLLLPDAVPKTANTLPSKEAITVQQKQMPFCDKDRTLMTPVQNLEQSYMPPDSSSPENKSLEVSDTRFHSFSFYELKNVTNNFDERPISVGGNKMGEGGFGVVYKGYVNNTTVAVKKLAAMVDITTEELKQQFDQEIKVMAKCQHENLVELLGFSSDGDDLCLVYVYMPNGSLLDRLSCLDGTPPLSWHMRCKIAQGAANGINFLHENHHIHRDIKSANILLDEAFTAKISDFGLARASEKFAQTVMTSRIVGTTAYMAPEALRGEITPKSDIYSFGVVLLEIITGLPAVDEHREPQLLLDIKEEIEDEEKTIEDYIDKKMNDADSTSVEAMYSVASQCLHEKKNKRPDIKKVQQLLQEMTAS
Outline: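 Recombinant His-TEV-tagged IRAK4 (20 ng/well) phosphorylates biotinylated STK1 peptide (300 nM) with 2 μM ATP plus [^33P]ATP, 3 h at 30 °C in pH 7.0 HEPES buffer with MgCl2 and MnCl2; compounds tested 20 μM to 1 nM. Reaction stopped with EDTA; incorporated radioactivity counted on streptavidin FlashPlates.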

melting point [°C]	IC50 (IRAK4) [nM]	SMILES
237 to 238	100 to 1000	Cn1cc(-c2cccc(-c3ncc(-c4cnn(CC(=O)N5CCC(O)C5)c4)cn3)c2)cn1 (stereo not drawn) [Example 74, 1-(3-Hydroxy-pyrrolidin-1-yl)-2-(4-{2-[3-(1-methyl-1H-pyrazol-4-yl)-phenyl]-pyrimidin-5-yl}-pyrazol-1-yl)-ethanone]
177 to 181	100 to 1000	Cn1cc(-c2cccc(-c3ncc(-c4cnn(CC(=O)N5CC(O)C5)c4)cn3)c2)cn1 [Example 73, 1-(3-Hydroxy-azetidin-1-yl)-2-(4-{2-[3-(1-methyl-1H-pyrazol-4-yl)-phenyl]-pyrimidin-5-yl}-pyrazol-1-yl)-ethanone]
234 to 236	100 to 1000	Cn1cc(-c2cccc(-c3ncc(-c4cnn(CCO)c4)cn3)c2)cn1 [Example 23, 2-(4-{2-[3-(1-Methyl-1H-pyrazol-4-yl)-phenyl]-pyrimidin-5-yl}-pyrazol-1-yl)-ethanol]
199 to 200	100 to 1000	Cn1cc(-c2cnc(-c3cccc(-c4cnn(C)c4)c3)nc2)cn1 [Example 32, 5-(1-Methyl-1H-pyrazol-4-yl)-2-[3-(1-methyl-1H-pyrazol-4-yl)-phenyl]-pyrimidine]
198 to 200	100 to 1000	Cn1cc(-c2cccc(-c3ncc(-c4cnn(CC(=O)N5CCCC(O)C5)c4)cn3)c2)cn1 (stereo not drawn) [Example 52, 1-(3-Hydroxy-piperidin-1-I)-2-(4-{2-[3-(1-methyl-1H-pyrazol-4-yl)-phenyl]-pyrimidin-5-yl}-pyrazol-1-yl)-ethanone]
207.5 to 212	100 to 1000	Cn1cc(-c2cccc(-c3ncc(-c4cnn([C@@H]5CCC[C@@H](O)C5)c4)cn3)c2)cn1 (relative stereo) [Example 290, Trans-3-(4-{2-[3-(1-Methyl-1H-pyrazol-4-yl)-phenyl]-pyrimidin-5-yl}-pyrazol-1-yl)-cyclohexanol]
–	100 to 1000	Cn1cc(-c2cccc(-c3ncc(-c4cnn(CC5CNCCO5)c4)cn3)c2)cn1 (stereo not drawn) [Example 41, 2-(4-{2-[3-(1-Methyl-1H-pyrazol-4-yl)-phenyl]-pyrimidin-5-yl}-pyrazol-1-ylmethyl)-morpholine hydrochloride]

More lines, now with the values behind:

SMILES	melting point [°C]	IC50 (IRAK4) [nM]
Cn1cc(-c2cccc(-c3ncc(-c4cnn([C@H]5CC[C@H](OCCO)CC5)c4)cn3)c2)cn1 [Example 277, Trans-2-[4-(-4-{2-[3-(1-Methyl-1H-pyrazol-4-yl)-phenyl]-pyrimidin-5-yl}-pyrazol-1-yl)-cyclohexyloxy]-ethanol]	218.7 to 223.3	< 100
Cn1cc(-c2cccc(-c3ncc(-c4cnn([C@H]5CC[C@@]6(CC5)CNC(=O)C6)c4)cn3)c2)cn1 [Example 286, trans-8-(4-{2-[3-(1-Methyl-1H-pyrazol-4-yl)-phenyl]-pyrimidin-5-yl}-pyrazol-1-yl)-2-aza-spiro[4.5]decan-3-one]	255 to 258.7	< 100
Cn1cc(-c2cccc(-c3ncc(-c4cnn([C@H]5CC[C@]6(CO)COC[C@]6(O)C5)c4)cn3)c2)cn1 (single isomer, unassigned) [Example 280]	190.1 to 201.7	< 100
CN1CC2CC1CN2C(=O)[C@H]1CC[C@H](n2cc(-c3cnc(-c4cccc(-c5cnn(C)c5)c4)nc3)cn2)CC1 (stereo partly drawn) (as salt: hydrobromid) [Example 278, (5-Methyl-2,5-diaza-bicyclo[2.2.1]hept-2-yl)-trans-[4-(-4-{2-[3-(1-methyl-1H-pyrazol-4-yl)-phenyl]-pyrimidin-5-yl}-pyrazol-1-yl)-cyclohexyl]-methanone hydrobromide]	50.3 to 55	–
Cn1cc(-c2cccc(-c3ncc(-c4cnn(C5CCCC(S(C)(=N)=O)C5)c4)cn3)c2)cn1 (stereo not drawn) [Example 288, imino(methyl)(3-(4-(2-(3-(1-methyl-1H-pyrazol-4-yl)phenyl)pyrimidin-5-yl)-1H-pyrazol-1-yl)cyclohexyl)-λ6-sulfanone]	172 to 179.2	< 100
Cn1cc(-c2cccc(-c3ncc(-c4cnn(C5CCS(=O)(=O)C5)c4)cn3)c2)cn1 (stereo not drawn) [Example 219, 5-[1-(1,1-Dioxo-tetrahydro-1lambda6-thiophen-3-yl)-1H-pyrazol-4-yl]-2-[3-(1-methyl-1H-pyrazol-4-yl)-phenyl]-pyrimidine]	247 to 250	100 to 1000
Cn1cc(-c2cccc(-c3ncc(-c4cnn([C@@H]5CC[C@@]6(CO)COC[C@@]6(O)C5)c4)cn3)c2)cn1 (single isomer, unassigned) [Example 281]	191.4 to 199.7	100 to 1000
Cn1cc(-c2cccc(-c3ncc(-c4cnn([C@H]5CC[C@]6(CC5)CNC(=O)C6)c4)cn3)c2)cn1 [Example 287, cis-8-(4-(2-(3-(1-methyl-1H-pyrazol-4-yl)phenyl)pyrimidin-5-yl)-1H-pyrazol-1-yl)-2-azaspiro[4.5]decan-3-one]	262 to 265.8	< 100
Cn1cc(-c2cccc(-c3ncc(-c4cnn([C@H]5CCCNC5)c4)cn3)c2)cn1 [Example 283, 2-[3-(1-Methyl-1H-pyrazol-4-yl)-phenyl]-5-((S)-1-piperidin-3-yl-1H-pyrazol-4-yl)-pyrimidine]	175.8 to 180.6	< 100
